# Laboratory results taken from US20170157150A1, “ORAL DOSAGE FORM COMPRISING TRI-SUBSTITUTED GLYCEROL COMPOUNDS” (Alphaptose GmbH, priority 2006, published 2017).
# Key:
# [1] = system: LNCaP androgen-sensitive human prostate adenocarcinoma cells; test: Trypan blue dye exclusion, percentage of living tumor cells; type: cell-based; settings: for survival rate: untreated controls about 86%
# Experimental: (§1) FIG. 3. Depicts the in vitro effects of 1-O-octadecyl-2-O-methyl-glycero-3-phosphocholine (final concentration 10 μM), (ionizing) radiation (absorbed dose of 5 Gray units; indicated as “RT”), and a combination thereof on programmed cell death (apoptosis) and the survival rate of LNCaP androgen-sensitive human prostate adenocarcinoma cells. Apoptosis was determined using the Apo-ONE™ Homogenous Caspase-3/7 Assay, Promega, Inc., Madison, Wis., USA according to the manufacturer's instructions. The percentage of living cancer cells was estimated by means of trypan blue dye exclusion as described (Freshney, R. I. (1994) Culture of Animal Cells: A Manual of Basic Technique. 3rd Ed. Wiley-Liss. New York. USA). The cells were exposed to radiation six hours after (FIG. 3A), concomitantly with (FIG. 3B), or six hours before administration of 1-O-octadecyl-2-O-methyl-glycero-3-phospho-choline (FIG. 3C). The caspase assay was performed 12 hours after exposure to radiation. The respective data shown represent the average of two independent experiments.
# (§2) First, the in vitro effects of 1-O-octadecyl-2-O-methyl-glycero-3-phosphocholine, (ionizing) radiation, and a combination thereof on programmed cell death (apoptosis) and the survival rate of LNCaP androgen-sensitive human prostate adenocarcinoma cells were measured. The LNCaP cell line was established from a metastatic lesion of the adenocarcinoma. The cells were treated with a final concentration of 10 μM 1-O-octadecyl-2-O-methyl-glycero-3-phosphocholine and (ionizing) radiation corresponding to an absorbed dose of 5 Gray units.
# (§3) Apoptosis was determined using the Apo-ONE™ Homogenous Caspase-3/7 Assay, Promega, Inc., Madison, Wis., USA according to the manufacturer's instructions. The percentage of living tumor cells was estimated by means of trypan blue dye exclusion as described (Freshney, R. I. (1994) Culture of Animal Cells: A Manual of Basic Technique. 3rd Ed. Wiley-Liss. New York. USA)
# (§4) The cells were exposed to radiation six hours after (FIG. 3A), concomitantly with (FIG. 3B), or six hours before administration of 1-O-octadecyl-2-O-methyl-glycero-3-phospho-choline (FIG. 3C). The caspase assay was performed 12 hours after exposure to radiation. The respective data shown represent the average of two independent experiments.
# [2] = system: LNCaP androgen-sensitive human prostate adenocarcinoma cells; test: Apo-ONE Homogenous Caspase-3/7 Assay (apoptosis); type: cell-based
# Experimental: as §1, §2, §3, §4
# (§5) In a further approach, 10 μM 1-O-octadecyl-2-O-methyl-glycero-3-phosphocholine (final concentration; “CHEM”) and (ionizing) radiation (5 Gray units; “RT”) were administered simultaneously to the LNCaP cells but the subsequent incubation period was extended to 24 hours. Apoptosis was measured using the Apo-ONE™ Homogenous Caspase-3/7 Assay as described above and expressed as relative fluorescence units (RFLU). The percentage of apoptotic cells was determined by flow cytometric analysis of annexin V-PE positive-stained and 7-AAD (7-Amino ActinomycinD) negative-stained cells (both purchased from BD Biosciences, San Jose, Calif., USA) according to established standard protocols. The data represent means±SEM from three independent experiments.
# (§6) Next, the interaction of 1-O-octadecyl-2-O-methyl-glycero-3-phosphocholine administration (“CHEM”) and androgen deprivation (“AD”) was investigated. LNCaP cells were deprived of androgen for two days by charcoal absorption of serum according to established procedures well known in the art. CHEM was added in a final concentration of 5 μM and 10 μM, respectively.
# (§7) Apoptosis was measured using the Apo-ONE™ Homogenous Caspase-3/7 Assay as described above and expressed as relative fluorescence units (RFLU). The percentage of apoptotic cells was determined via annexin V-PE/7-AAD staining as described above. The caspase-3/7 assay and annexin staining were performed 22 hours after CHEM treatment.
# LNCaP cells = test: Flow cytometry of annexin V-PE positive / 7-AAD negative cells (apoptotic cells); type: cell-based, human
# Experimental: as §5, §6, §7
# LNCaP C4-2 cells = test: Apoptosis after CHEM+RT in androgen-insensitive cells; type: cell-based; settings: data not shown
# LNCaP-Res cells = test: as above; type: cell-based; settings: data not shown
# [3] = system: LNCaP cells grown orthotopically in the prostates of nude mice; test: Orthotopic LNCaP prostate tumor model, serum PSA and tumor volume (MRI); type: in vivo; settings: 30 mg/kg body weight/day intraperitoneally for 15 days + radiation 5 Gray on day 7; preliminary study
# Experimental: FIG. 4. Depicts the in vivo effects of 1-O-octadecyl-2-O-methyl-glycero-3-phosphocholine (30 mg/kg body weight/day administered intraperitoneally for 15 days: FIG. 4A), (ionizing) radiation (absorbed dose of 5 Gray units administered on day 7; FIG. 4C), and a combination thereof (FIG. 4B) on LNCaP cells grown orthotopically in the prostates of nude mice (seven mice/group). Tumor growth was assessed via determining the serum level of the prostate-specific antigen (PSA) using a commercially available test kit as well as the tumor volume by means of magnetic resonance imaging.
# Additionally, in a preliminary study the in vivo effects of 1-O-octadecyl-2-O-methyl-glycero-3-phosphocholine (ionizing) radiation, and a combination thereof on LNCaP cells grown orthotopically in the prostates of nude mice (seven mice/group) was investigated.
# 1-O-octadecyl-2-O-methyl-glycero-3-phosphocholine was administered intraperitoneally in a dose of 30 mg/kg body weight/day administered intraperitoneally for 15 days (FIG. 4A; studies using different routes of administration such as orally or by gavage are currently under way). […] Tumor growth was assessed via determining the serum level of the prostate-specific antigen (PSA) using a commercially available test kit as well as the tumor volume by means of magnetic resonance imaging.
# [4] = Differential scanning calorimetry, excipient compatibility; type: physicochemical; settings: crystalline compound, heating 5 K/min up to 300° C., cooling 1 K/min down to −30° C.
# Experimental: FIG. 1. Depicts the results of differential scanning calorimetry (DCS) analyses for determining excipient compatibility using a Netzsch DSC 204 apparatus (Netzsch Gerätebau GmbH, Selb, Germany) with a heating rate of 5 K/min up to 300° C. and a cooling rate of 1 K/min down to −30° C. (temperature onset at room temperature (approx. 20° C.)). The below-mentioned samples were tested: crystalline 1-O-octadecyl-2-O-methyl-glycero-3-phosphocholine alone (black curves), the following excipients alone (red curves): lactose (FIG. 1A), crospovidone (FIG. 1B), starch 1500 (FIG. 1C), siliciumdioxide (FIG. 1D), as well as magnesium stearate (FIG. 1E), and binary mixtures of 1-O-octadecyl-2-O-methyl-glycero-3-phosphocholine and each excipient (green curves).
# Differential scanning calorimetry (DCS) analyses were performed for determining the compatibility of different excipients for formulating tablets according to the present invention.
# DSC is a thermoanalytical technique in which the difference in the amount of heat required to increase the temperature of a sample and reference is measured as a function of temperature. Both the sample and reference are maintained at nearly the same temperature throughout the experiment. Generally, the temperature program for a DSC analysis is designed such that the temperature increases or decreases linearly as a function of time. […]
# [5] = 10 μM CHEM + RT (5 Gray) simultaneously, 24 hours incubation, means±SEM, p<0.0001 vs CHEM and RT
# [6] = AD + R1881 (two days prior to CHEM) + 5 μM CHEM, 22 hours
# [7] = AD + R1881 (two days prior to CHEM) + 10 μM CHEM, 22 hours
compound,measurement,setting,value
CCCCCCCCCCCCCCCCCCOCC(COP(=O)([O-])OCC[N+](C)(C)C)OC (stereo not drawn) [1-O-octadecyl-2-O-methyl-glycero-3-phosphocholine],survival rate of tumor cells,"[1]; 10 μM compound alone, FIG. 3A experiment, untreated controls about 85%",about 60%
same,survival rate,"[1]; 10 μM compound alone, FIG. 3B experiment",about 50%
same,survival of cells,"[1]; 10 μM compound alone, FIG. 3C experiment",about 45%
same,survival rate,"[1]; 10 μM compound concomitantly with radiation (5 Gray), FIG. 3B",about 55%
same,survival of cells,"[1]; 10 μM compound six hours after radiation (5 Gray), combined treatment, FIG. 3C",about 40%
same,survival of tumor cells,"[1]; 10 μM compound six hours prior to radiation (5 Gray), combined treatment, FIG. 3A, untreated controls about 85%",about 45%
same,Caspase-3/7 activity (RFLU),[2]; [5],1514 ± 102 RFLU
same,Caspase-3/7 activity (RFLU),"[2]; 10 μM CHEM alone, 24 hours incubation, means±SEM, three experiments, control 193 ± 39",580 ± 207 RFLU
same,"extent of apoptosis, increase in cells only exposed to the chemical as compared to combined treatment","[2]; 10 μM compound six hours after radiation (5 Gray), FIG. 3C",about 25%
same,increase in apoptotic response (caspase-3/7 assay),"[2]; 10 μM compound six hours prior to radiation (5 Gray), combined treatment, assay 12 hours after radiation, FIG. 3A",> 2.5 fold
same,Caspase-3/7 activity (RFLU),[2]; [6],453 RFLU
same,Caspase-3/7 activity (RFLU),[2]; [7],962 RFLU
same,Caspase-3/7 activity (RFLU),"[2]; Contr. cells + 5 μM CHEM, 22 hours after treatment, Contr. 235",380 RFLU
same,Caspase-3/7 activity (RFLU),"[2]; Contr. cells + 10 μM CHEM, 22 hours after treatment, Contr. 235",436 RFLU
same,Caspase-3/7 activity (RFLU),"[2]; androgen deprivation (AD) two days + 5 μM CHEM, 22 hours, AD alone 81",126 RFLU
same,Caspase-3/7 activity (RFLU),"[2]; androgen deprivation (AD) two days + 10 μM CHEM, 22 hours, AD alone 81",115 RFLU
same,% Annexin V-PE pos. cells,LNCaP cells; [5],31.7 ± 1.0 %
same,% Annexin V-PE pos. cells,"LNCaP cells; 10 μM CHEM alone, 24 hours incubation, means±SEM, three experiments, control 3.6 ± 0.2",18.6 ± 1.0%
same,% Annexin V-PE pos. cells,LNCaP cells; [6],14.6%
same,% Annexin V-PE pos. cells,LNCaP cells; [7],21.6%
same,% Annexin V-PE pos. cells,"LNCaP cells; Contr. cells + 5 μM CHEM, 22 hours after treatment, Contr. 9.8",13.0%
same,% Annexin V-PE pos. cells,"LNCaP cells; Contr. cells + 10 μM CHEM, 22 hours after treatment, Contr. 9.8",17.5%
same,% Annexin V-PE pos. cells,"LNCaP cells; androgen deprivation (AD) two days + 5 μM CHEM, 22 hours, AD alone 12.6",15.4%
same,% Annexin V-PE pos. cells,"LNCaP cells; androgen deprivation (AD) two days + 10 μM CHEM, 22 hours, AD alone 12.6",27.4%
same,apoptotic response in androgen-deprived LNCaP cells,"LNCaP cells; androgen-deprived cells, 5 μM and 10 μM",dose-dependent significant increase
same,reversal of the apoptotic effect by synthetic androgen added prior to treatment,"LNCaP cells; androgen-deprived cells, R1881 added two days prior",not reversed
same,apoptosis in CHEM+RT treated cells,LNCaP C4-2 cells,enhancement of apoptosis
same,apoptosis in CHEM+RT treated cells,LNCaP-Res cells,enhancement of apoptosis
same,"PSA serum levels, combined treatment compared to either individual treatment",[3],significant decrease
C[C@]1(O)CC[C@H]2[C@@H]3CCC4=CC(=O)CCC4=C3C=C[C@@]21C [R1881],Caspase-3/7 activity (RFLU),"[2]; AD + R1881, no CHEM, AD alone 81",130 RFLU
same,% Annexin V-PE pos. cells,"LNCaP cells; AD + R1881, no CHEM, AD alone 12.6",7.0%
OC[C@H]1O[C@@H](O[C@H]2[C@H](O)[C@@H](O)C(O)O[C@@H]2CO)[C@H](O)[C@@H](O)[C@H]1O (stereo partly drawn) [lactose],interaction of excipient with 1-O-octadecyl-2-O-methyl-glycero-3-phosphocholine (DSC thermogram of binary mixture),[4],show such interactions
magnesium stearate,interaction of excipient with 1-O-octadecyl-2-O-methyl-glycero-3-phosphocholine (DSC thermogram of binary mixture),[4],dominate the thermogram
